From patent US20180057580A1, “ANTI-GREMLIN-1 (GREM1) ANTIBODIES AND METHODS OF USE THEREOF FOR TREATING PULMONARY ARTERIAL HYPERTENSION” (priority 2016, published 2018)

Assays:
[1] = test system: Sugen 5416/chronic hypoxia mouse model; assay: Study 3: 6 weeks Sugen5416/chronic hypoxia mouse model of pulmonary hypertension, ultrasound assessment; type: in vivo
Method: Eleven to thirteen week old Taconic C57BL/6 mice were used. Mice were separated into treatment groups by weight such that starting body weights were similar among different groups. Cages were selected to either remain at about 21% O2 (normobaric normoxia) or placed into 10% O2 (normobaric hypoxia) chamber (a modified 3′ Semi-Rigid Isolator unit, Charles River) that maintained low O2 levels with adjustment of N2 flow to a steady intake of room air. Mice were administered Sugen5416 (Sigma, Cat#58442; VEGFR inhibitor subcutaneously at 20 mg/kg weekly for 6 weeks) and drugs or saline starting on day 21. A group of mice (n=10) housed in normobaric normoxia cages were subcutaneously administered saline at 5 mL/kg twice per week for three weeks, while mice housed in normobaric hypoxia cages were separated into 5 treatment groups including a group of mice (n=10) subcutaneously treated with saline at 5 mL/kg twice per week for three weeks, a group of mice (n=9) orally administered Bosentan (Sequoia Research Products Cat SRP02325b) at 300 mg/kg every day for three weeks, a group of mice (n=10) subcutaneously administered an isotype control antibody at 25 mg/kg twice per week for three weeks, a group of mice (n=10) subcutaneously treated with the anti-Gremlin-1 antibody at 25 mg/kg twice a week for three weeks, a group of mice (n=9) subcutaneously treated with an anti-Gremlin-1 antibody at 25 mg/kg twice a week for three weeks and orally administered Bosentan at 300 mg/kg every day for three weeks. [table] On the last day of the study, pulmonary artery size and right ventricular function and dimensions were assessed in each mouse using a high frequency ultrasound system (Vevo 2100, VisualSonics). For the assessment, mice were anesthetized (with 1.5% isoflurane at a rate of 1.0 cc/mL of medical grade air) and their temperature was monitored with a rectal temperature probe and held at approximately 37° C. with a heated platform (MouseMonitorS, Indus Instruments) and a warming lamp. Both brightness-mode (B-mode) and motion-mode (M-mode) imaging were used. B-mode imaging of the mouse heart in cross-section was used to determine pulmonary artery cross-sectional area (PA CSA) at the level of the pulmonary valve. M-mode imaging was used to determine the pulsed wave velocity time integral (VTI), which is derived from the area under the curve of representative Doppler tracings of blood flow through the pulmonary artery. Right ventricular stroke volume (RV SV) was calculated from the product of PA CSA and VTI. Right ventricular cardiac output (RV CO) was calculated from the product of SV and heart rate (HR). M-mode imaging was used to determine right ventricular free wall (RVFW) thickness during diastole and systole. Animals were returned to their home cages before right ventricular pressure assessment.

[2] = test system: chronic hypoxia-induced pulmonary arterial hypertension mouse model; assay: Study 1: 4 week chronic hypoxia mouse model of pulmonary arterial hypertension, ultrasound assessment; type: in vivo; settings: study not given
From the text: For both studies, eleven to thirteen-week-old Taconic C57BL/6 mice were used. Mice were separated into treatment groups by weight such that starting body weights were similar among different groups. Cages were selected to either remain at about 21% O2 (normobaric normoxia) or placed into a 10% O2 (normobaric hypoxia) chamber (a modified 3′ Semi-Rigid Isolator unit, Charles River) that maintained low O2 levels with adjustment of N2 flow to a steady intake of room air.
For the first study (Study 1), mice were administered drugs or saline starting on day 14. […]
On the last day of each study, pulmonary artery size and right ventricular function and dimensions were assessed in each mouse using a high frequency ultrasound system (Vevo 2100, VisualSonics). For the assessment, mice were anesthetized (with 1.5% isoflurane at a rate of 1.0 cc/mL of medical grade air) and their temperature was monitored with a rectal temperature probe and held at approximately 37° C. with a heated platform (MouseMonitorS, Indus Instruments) and a warming lamp. […] Right ventricular stroke volume (RV SV) was calculated from the product of PA CSA and VTI. Right ventricular cardiac output (RV CO) was calculated from the product of SV and heart rate (HR). […]

[3] = Study 3, normobaric hypoxia + Sugen5416 6 weeks, 300 mg/kg PO daily from day 21

Row | Molecule | PA CSA greater than hypoxic saline-treated group ([1]; Study 3, Sugen5416/hypoxia, 300 mg/kg PO daily, significant) [%] | Heart rate (Ave ± SEM) [1, 3] [beats/min] | PA CSA (Ave ± SEM) [1, 3] | Right Ventricular cardiac output (Ave ± SEM) [1, 3] | Stroke Volume (Ave ± SEM) [1, 3] | Pulmonary artery size (cross-sectional area), result in words ([2]; FIG. 1A legend) | Right ventricular stroke volume, result in words ([2]; FIG. 1B legend)
1 | COc1ccccc1Oc1c(NS(=O)(=O)c2ccc(C(C)(C)C)cc2)nc(-c2ncccn2)nc1OCCO [Bosentan] | ~43 | 509.7 ± 18.9 | 1.724 ± 0.074^%%% mm^2 | 17.81 ± 1.46^%% ml/min | 35.51 ± 3.22^%% ul |  | 
2 | H4H6245P: fully human anti-GREM1 antibody, HCVR/LCVR SEQ ID NOs 434/442; relation to H4H6245P2 not stated (antibody, V domains shown) VH: EVQLVESGGGLVQPGGSLRLSCAASGFTFNSFWMSWVRQAPGKGLEWVANIKQDGSEKYYVDSVKGRFTISRDNAKNSVYLQMNSLRAEDTAVYYCARDLVTSFDYWGQGTLVTVSS VL: DIQMTQSPSSLSASVGDRVTITCQASQDINNYLNWYQQKPGKAPKLLIYDASYLETGVPSGFSGSGSGTDFTFTISSLQPEDIATYYCQQYDSLPYTFGQGTKLEIK |  |  |  |  |  | near normoxic levels | near normoxic levels
